In patent US20250011318A1 (ARCUS BIOSCIENCES, INC., priority 2023, published 2025):

What was measured:
[1] = target: T1, Cbl-b (Homo sapiens, UniProt Q13191); assay: Cbl-b probe displacement HTRF binding assay; details: 0.4 nM biotinylated Cbl-b, 150 nM BODIPY probe
T1 construct: biotin (biotinylated)
Outline: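 Biotinylated Cbl-b (0.4 nM) preincubated 60 min at RT with compound (20-point 1:2 series, 10 μM top), then 150 nM BODIPY probe for 15 min, then streptavidin-terbium detection. Buffer: 20 mM Hepes, 150 mM NaCl, 0.01% Triton X-100, 0.5 mM TCEP, 0.01% BSA. Loss of HTRF signal gave IC50 via four-parameter fit.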

[2] = test system: Jurkat cells; assay: IL-2 secretion assay in CD3/CD28-activated Jurkat cells (AlphaLISA); format: cell-based, human; details: Homo sapiens, CD3/CD28 T Cell Activator, 24 h, IL-2 AlphaLISA
Outline: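 Jurkat cells (50,000/well) preincubated 1 h at 37° C with compound (16-point 1:2 series, final 10 μM to 300 pM) in Opti-MEM, then stimulated with CD3/CD28 activator for 24 h. Supernatant IL-2 read by AlphaLISA; EC50 from 4-parameter logistic fit.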

T1 sequence (Q13191 whole entry, species assumed): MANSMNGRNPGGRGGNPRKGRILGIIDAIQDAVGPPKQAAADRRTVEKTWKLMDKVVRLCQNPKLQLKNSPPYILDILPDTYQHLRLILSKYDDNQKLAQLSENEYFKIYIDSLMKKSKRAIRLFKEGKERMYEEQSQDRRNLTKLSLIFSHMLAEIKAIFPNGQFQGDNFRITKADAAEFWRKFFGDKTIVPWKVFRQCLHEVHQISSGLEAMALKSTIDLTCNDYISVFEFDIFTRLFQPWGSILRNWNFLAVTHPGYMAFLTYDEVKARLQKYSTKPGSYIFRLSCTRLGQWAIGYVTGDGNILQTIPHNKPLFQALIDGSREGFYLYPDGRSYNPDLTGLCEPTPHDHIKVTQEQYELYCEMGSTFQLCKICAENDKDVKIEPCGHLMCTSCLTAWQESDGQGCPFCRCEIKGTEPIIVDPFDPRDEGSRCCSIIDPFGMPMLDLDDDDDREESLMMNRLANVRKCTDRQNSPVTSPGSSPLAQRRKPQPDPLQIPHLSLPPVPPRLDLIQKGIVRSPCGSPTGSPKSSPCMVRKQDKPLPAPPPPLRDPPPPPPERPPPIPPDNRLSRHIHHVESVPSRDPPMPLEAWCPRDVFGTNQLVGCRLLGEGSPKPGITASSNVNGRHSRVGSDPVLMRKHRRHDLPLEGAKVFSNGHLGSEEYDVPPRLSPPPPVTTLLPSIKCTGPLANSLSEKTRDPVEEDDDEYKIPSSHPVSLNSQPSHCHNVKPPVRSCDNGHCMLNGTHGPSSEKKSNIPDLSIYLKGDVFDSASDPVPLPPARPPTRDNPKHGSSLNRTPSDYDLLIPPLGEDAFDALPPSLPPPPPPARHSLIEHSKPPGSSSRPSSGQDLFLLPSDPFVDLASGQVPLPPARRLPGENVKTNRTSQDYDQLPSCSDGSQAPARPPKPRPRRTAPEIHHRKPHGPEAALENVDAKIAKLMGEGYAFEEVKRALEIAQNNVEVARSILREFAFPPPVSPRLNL

| SMILES | IC50 [1] [nM] | EC50 [2] [nM] |
| --- | --- | --- |
| CC1(NCc2cc3c(C4CC4)cn(-c4cc(-c5ccc(C#N)cc5-c5ncccc5C(F)(F)F)cc(C5CC5)n4)c(=O)c3[nH]2)CCC1 [Example 73, 4-(6-cyclopropyl-2-{4-cyclopropyl-2-[(1-methylcyclobutylamino)methyl]-7-oxo-1,6-dihydro-1,6-diaza-6-indenyl}-4-pyridyl)-3-[3-(trifluoromethyl)-2-pyridyl]benzonitrile] | < 100 | 100 to 1000 |
| Cc1cccnc1-c1cc(C#N)ccc1-c1cc(C2CC2)nc(-n2cc(C3CC3)c3cc(CN4CCC[C@H](C)C4)[nH]c3c2=O)c1 [Example 74, 4-[2-cyclopropyl-6-[4-cyclopropyl-2-[[(3S)-3-methylpiperidin-1-yl]methyl]-7-oxo-1H-pyrrolo[2,3-c]pyridin-6-yl]pyridin-4-yl]-3-(3-methylpyridin-2-yl)benzonitrile] | < 100 | 100 to 1000 |
| C[C@H]1CCCN(Cc2cc3c(C#N)cn(-c4cc(-c5ccc(C#N)cc5-c5nccn5C)cc(C5CC5)n4)c(=O)c3[nH]2)C1 [Example 84, 2-{[(S)-3-methyl-1-piperidyl]methyl}-6-{4-[4-cyano-2-(1-methyl-2-imidazolyl)phenyl]-6-cyclopropyl-2-pyridyl}-7-oxo-1,6-dihydro-1,6-diaza-4-indenecarbonitrile] | < 100 | < 100 |
| Cn1ccnc1-c1cc(F)ccc1-c1cc(C2CC2)nc(-n2cc(C#N)c3cc(CNCCCF)[nH]c3c2=O)c1 [Example 86, 6-{6-cyclopropyl-4-[4-fluoro-2-(1-methyl-2-imidazolyl)phenyl]-2-pyridyl}-2-[(3-fluoropropylamino)methyl]-7-oxo-1,6-dihydro-1,6-diaza-4-indenecarbonitrile] | < 100 | < 100 |
| Cn1ccnc1-c1cc(F)ccc1-c1cc(C2CC2)nc(-n2cc(C#N)c3cc(CN4CC5(C4)CS(=O)(=O)C5)[nH]c3c2=O)c1 [Example 87, 6-{6-cyclopropyl-4-[4-fluoro-2-(1-methyl-2-imidazolyl)phenyl]-2-pyridyl}-2-{(2,2-dioxo-2λ^6-thia-6-aza-6-spiro[3.3]heptyl)methyl}-7-oxo-1,6-dihydro-1,6-diaza-4-indenecarbonitrile] | < 100 | < 100 |
| C[C@H]1CN(Cc2cc3c(C#N)cn(-c4cc(-c5c(F)cc(F)cc5-c5nccn5C)cc(C5CC5)n4)c(=O)c3[nH]2)CCCO1 [Example 88, 2-{1[(S)-2-methyl-1,4-oxazepan-4-yl]methyl}-6-{6-cyclopropyl-4-[4,6-difluoro-2-(1-methyl-2-imidazolyl)phenyl]-2-pyridyl}-7-oxo-1,6-dihydro-1,6-diaza-4-indenecarbonitrile] | < 100 | < 100 |
| C[C@H]1CCCCN1Cc1cc2c(C#N)cn(-c3cc(-c4c(F)cc(F)cc4-c4nccn4C)cc(C4CC4)n3)c(=O)c2[nH]1 [Example 89, 2-{[(S)-2-methyl-1-piperidyl]methyl}-6-{6-cyclopropyl-4-[4,6-difluoro-2-(1-methyl-2-imidazolyl)phenyl]-2-pyridyl}-7-oxo-1,6-dihydro-1,6-diaza-4-indenecarbonitrile] | < 100 | < 100 |
| Cn1cnnc1-c1cc(F)ccc1-c1cc(C2CC2)nc(-n2cc(C#N)c3cc(C(O)c4cccnc4)[nH]c3c2=O)c1 (centres unmarked) [Example 92, 6-{6-Cyclopropyl-4-[4-fluoro-2-(4-methyl-4H-1,2,4-triazol-3-yl)phenyl]-2-pyridyl}-2-[hydroxy(3-pyridyl)methyl]-7-oxo-1,6-dihydro-1,6-diaza-4-indenecarbonitrile] | < 100 | < 100 |
| Cc1cccc(C(O)c2cc3c(C#N)cn(-c4cc(-c5ccc(F)cc5-c5nncn5C)cc(C5CC5)n4)c(=O)c3[nH]2)n1 (centres unmarked) [Example 93, 6-{6-cyclopropyl-4-[4-fluoro-2-(4-methyl-4H-1,2,4-triazol-3-yl)phenyl]-2-pyridyl}-2-[hydroxy(6-methyl-2-pyridyl)methyl]-7-oxo-1,6-dihydro-1,6-diaza-4-indenecarbonitrile] | < 100 | < 100 |
| Cn1cnnc1-c1cc(F)ccc1-c1cc(C2CC2)nc(-n2cc(C#N)c3cc(C(N)c4cccnc4)[nH]c3c2=O)c1 (centres unmarked) [Example 94, 2-[Amino(3-pyridyl)methyl]-6-{6-cyclopropyl-4-[4-fluoro-2-(4-methyl-4H-1,2,4-triazol-3-yl)phenyl]-2-pyridyl}-7-oxo-1,6-dihydro-1,6-diaza-4-indenecarbonitrile] | < 100 | 100 to 1000 |

More lines, now with the values ahead:

| IC50 [1] [nM] | EC50 [2] [nM] | SMILES |
| --- | --- | --- |
| < 100 | < 100 | C[C@H]1CCCN(Cc2cc3c(C4CC4)cn(-c4cc(-c5ccc(C#N)cc5-c5nncn5C(F)F)cc(C5CC5)n4)c(=O)c3[nH]2)C1 [Example 69, 4-[2-(2-{[(S)-3-methyl-1-piperidyl]methyl}-4-cyclopropyl-7-oxo-1,6-dihydro-1,6-diaza-6-indenyl)-6-cyclopropyl-4-pyridyl]-3-[4-(difluoromethyl)-4H-1,2,4-triazol-3-yl]benzonitrile] |
| < 100 | < 100 | O=c1c2[nH]c(CN[C@H]3CCC[C@H]3O)cc2c(C2CC2)cn1-c1cc(F)cc(-c2ccc(F)cc2-c2nncn2C(F)F)c1 [Example 70, 2-{[(1S,2R)-2-hydroxycyclopentylamino]methyl}-4-cyclopropyl-6-{2′-[4-(difluoromethyl)-4H-1,2,4-triazol-3-yl]-4′,5-difluoro-3-biphenylyl}-1,6-dihydro-1,6-diaza-7-indenone] |
| < 100 | < 100 | Cc1ocnc1-c1cc(C#N)ccc1-c1cc(C2CC2)nc(-n2cc(C3CC3)c3cc(CNC4(C)CCC4)[nH]c3c2=O)c1 [Example 71, 4-(6-cyclopropyl-2-{4-cyclopropyl-2-[(1-methylcyclobutylamino)methyl]-7-oxo-1,6-dihydro-1,6-diaza-6-indenyl}-4-pyridyl)-3-(5-methyl-1,3-oxazol-4-yl)benzonitrile] |
| < 100 | < 100 | Cc1ccnnc1-c1cc(C#N)ccc1-c1cc(C2CC2)nc(-n2cc(C3CC3)c3cc(CNC4(C)CCC4)[nH]c3c2=O)c1 [Example 75, 4-[2-Cyclopropyl-6-[4-cyclopropyl-2-[[(1-methylcyclobutyl)amino]methyl]-7-oxo-1H-pyrrolo[2,3-c]pyridin-6-yl]pyridin-4-yl]-3-(4-methylpyridazin-3-yl)benzonitrile] |
| < 100 | < 100 | Cc1ccnnc1-c1cc(C#N)ccc1-c1cc(C2CC2)nc(-n2cc(C3CC3)c3cc(CNC4(CO)CCC4)[nH]c3c2=O)c1 [Example 76, 4-[2-Cyclopropyl-6-[4-cyclopropyl-2-[[[1-(hydroxymethyl)cyclobutyl]-amino]methyl]-7-oxo-1H-pyrrolo[2,3-c]pyridin-6-yl]pyridin-4-yl]-3-(4-methylpyridazin-3-yl)benzonitrile] |
| < 100 | < 100 | Cc1ccnnc1-c1cc(C#N)ccc1-c1cc(C2CC2)nc(-n2cc(C3CC3)c3cc(CN4CCC[C@H](C)C4)[nH]c3c2=O)c1 [Example 77] |
| < 100 | < 100 | Cc1cc(-c2ccc(C#N)cc2-c2nccn2C)cc(-n2cc(C3CC3)c3cc(CN4CCC[C@H](C)C4)[nH]c3c2=O)n1 [Example 81, 4-[2-(2-{[(S)-3-methyl-1-piperidyl]methyl}-4-cyclopropyl-7-oxo-1,6-dihydro-1,6-diaza-6-indenyl)-6-methyl-4-pyridyl]-3-(1-methyl-2-imidazolyl)benzonitrile] |
| < 100 | < 100 | COc1cc(-c2ccc(F)cc2-c2nccn2C)cc(-n2cc(C3CC3)c3cc(CN4CCC[C@H](C)C4)[nH]c3c2=O)n1 [Example 82, 4-Cyclopropyl-6-[4-[4-fluoro-2-(1-methylimidazol-2-yl)phenyl]-6-methoxypyridin-2-yl]-2-[[(3S)-3-methylpiperidin-1-yl]methyl]-1H-pyrrolo[2,3-c]pyridin-7-one] |
| < 100 | < 100 | C[C@H]1CCCN(Cc2cc3c(C4CC4)cn(-c4cc(-c5ccc(C(F)(F)F)cc5-c5nccn5C)cc(C5CC5)n4)c(=O)c3[nH]2)C1 [Example 83, 4-Cyclopropyl-6-[6-cyclopropyl-4-[2-(1-methylimidazol-2-yl)-4-(trifluoromethyl)phenyl]pyridin-2-yl]-2-[[(3S)-3-methylpiperidin-1-yl]methyl]-1H-pyrrolo[2,3-c]pyridin-7-one] |
| < 100 | < 100 | C[C@@H]1CN(Cc2cc3c(C#N)cn(-c4cc(-c5ccc(F)cc5-c5nncn5C)cc(C5CC5)n4)c(=O)c3[nH]2)CCO1 [Example 85, 6-[6-cyclopropyl-4-[4-fluoro-2-(4-methyl-1,2,4-triazol-3-yl)phenyl]pyridin-2-yl]-2-[[(2R)-2-methylmorpholin-4-yl]methyl]-7-oxo-1H-pyrrolo[2,3-c]pyridine-4-carbonitrile] |
| < 100 | 100 to 1000 | Cn1cnnc1-c1cc(F)ccc1-c1cc(C2CC2)nc(-n2cc(C#N)c3cc(C(O)C4CCOC4)[nH]c3c2=O)c1 (centres unmarked) [Example 90, 6-{6-cyclopropyl-4-[4-fluoro-2-(4-methyl-4H-1,2,4-triazol-3-yl)phenyl]-2-pyridyl}-2-[hydroxy(tetrahydro-3-furyl)methyl]-7-oxo-1,6-dihydro-1,6-diaza-4-indenecarbonitrile] |
| < 100 | < 100 | Cn1cnnc1-c1cc(F)ccc1-c1cc(C2CC2)nc(-n2cc(C#N)c3cc(C(O)C4CCCC4)[nH]c3c2=O)c1 (centres unmarked) [Example 91, 2-(cyclopentylhydroxymethyl)-6-{6-cyclopropyl-4-[4-fluoro-2-(4-methyl-4H-1,2,4-triazol-3-yl)phenyl]-2-pyridyl}-7-oxo-1,6-dihydro-1,6-diaza-4-indenecarbonitrile] |
